Laboratory results as given in patent publication US12077503B2, “Substituted cyclic amides and their use as herbicides” (FMC CORPORATION, priority 2015, dated 2024).

How the values were obtained:
Type in all cases: in vivo
[1] = system: barnyardgrass (Echinochloa crus-galli); test: Test G Pre-Emergence Protocol; conditions: Echinochloa crus-galli, pre-emergence, 312 h, evaluated after 13 days
In short: (§1)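 One day after sowing, pots are treated with a spray of test compound formulated in acetone/water 50:50 plus 0.5% Tween 20, giving 15.625, 62.5 or 250 g/ha. Evaluation on a 0–100 damage scale follows 13 days of glasshouse growth.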

[2] = system: corn (Zea mays); test: Test G Pre-Emergence Protocol; conditions: Zea mays, pre-emergence, 312 h, evaluated after 13 days
In short: as §1

[3] = system: giant foxtail (Setaria faberi); test: Test G Pre-Emergence Protocol; conditions: Setaria faberi, pre-emergence, 312 h, evaluated after 13 days
In short: as §1

[4] = system: ivy-leaved morning glory (Ipomoea hederacea); test: Test G Pre-Emergence Protocol; conditions: Ipomoea, pre-emergence, 312 h, evaluated after 13 days
In short: as §1

[5] = system: redroot pigweed (Amaranthus retroflexus); test: Test G Pre-Emergence Protocol; conditions: Amaranthus retroflexus, pre-emergence, 312 h, evaluated after 13 days
In short: as §1

[6] = system: velvetleaf (Abutilon theophrasti); test: Test G Pre-Emergence Protocol; conditions: Abutilon theophrasti, pre-emergence, 312 h, evaluated after 13 days
In short: as §1

[7] = system: barnyardgrass (Echinochloa crus-galli); test: Test G Post-Emergence Protocol; conditions: Echinochloa crus-galli, post-emergence, 312 h, read-out: Barnyardgrass damage rating
In short: (§2)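 A glasshouse post-emergence test: 8-day-old plants sprayed at 15.625, 62.5 or 250 g/ha, then grown at 24/16 °C day/night with 14 h light and 65% humidity. Damage rated 13 days later, 0–100.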

[8] = system: corn (Zea mays); test: Test G Post-Emergence Protocol; conditions: Zea mays, post-emergence, 312 h, read-out: Corn damage rating
In short: as §2

[9] = system: giant foxtail (Setaria faberi); test: Test G Post-Emergence Protocol; conditions: Setaria faberi, post-emergence, 312 h, read-out: Foxtail, Giant damage rating
In short: as §2

[10] = system: ivy-leaved morning glory (Ipomoea hederacea); test: Test G Post-Emergence Protocol; conditions: Ipomoea, post-emergence, 312 h, read-out: Morningglory, Ivy-leaved damage rating
In short: as §2

[11] = system: redroot pigweed (Amaranthus retroflexus); test: Test G Post-Emergence Protocol; conditions: Amaranthus retroflexus, post-emergence, 312 h, read-out: Pigweed, Redroot damage rating
In short: as §2

[12] = system: velvetleaf (Abutilon theophrasti); test: Test G Post-Emergence Protocol; conditions: Abutilon theophrasti, post-emergence, 312 h, read-out: Velvetleaf damage rating
In short: as §2

[13] = 15.625 g ai/ha, evaluated after 13 days (100=total damage to plant; 0=no damage to plant)
[14] = 62.5 g ai/ha, evaluated after 13 days, 100=total damage to plant, 0=no damage to plant
[15] = 250 g ai/ha, evaluated after 13 days, 100=total damage to plant, 0=no damage to plant

With CN1C[C@@H](c2ccc(C(F)(F)F)cc2)[C@H](C(=O)Nc2ccncc2F)C1=O (racemic) [Compound 1652] the pest or weed control at 15.625 g/ha ([1]; 15.625 g ai/ha, read-out: Barnyardgrass damage rating (100=total damage to plant; 0=no damage to plant)) was 0%, the pest or weed control at 62.5 g/ha ([1]; 62.5 g ai/ha, 100=total damage to plant, 0=no damage to plant, read-out: Barnyardgrass damage rating) was 0% and the pest or weed control at 250 g/ha ([1]; 250 g ai/ha, read-out: Barnyardgrass damage rating (100=total damage to plant; 0=no damage to plant)) was 0%. It also gave a plant injury at 15.625 g/ha ([2]; 15.625 g ai/ha, read-out: Corn damage rating (100=total damage to plant; 0=no damage to plant)) of 0%, a plant injury at 62.5 g/ha ([2]; 62.5 g ai/ha, 100=total damage to plant, 0=no damage to plant, read-out: Corn damage rating) of 0% and a plant injury at 250 g/ha ([2]; 250 g ai/ha, read-out: Corn damage rating (100=total damage to plant; 0=no damage to plant)) of 10%. For the same compound, the pest or weed control at 15.625 g/ha ([3]; 15.625 g ai/ha, read-out: Foxtail, Giant damage rating (100=total damage to plant; 0=no damage to plant)) was 0%, the pest or weed control at 62.5 g/ha ([3]; 62.5 g ai/ha, 100=total damage to plant, 0=no damage to plant, read-out: Foxtail, Giant damage rating) was 10% and the pest or weed control at 250 g/ha ([3]; 250 g ai/ha, read-out: Foxtail, Giant damage rating (100=total damage to plant; 0=no damage to plant)) was 30%. For the same compound, the pest or weed control at 15.625 g/ha ([4]; 15.625 g ai/ha, read-out: Morningglory, Ivy-leaved damage rating (100=total damage to plant; 0=no damage to plant)) was 0%, the pest or weed control at 62.5 g/ha ([4]; 62.5 g ai/ha, 100=total damage to plant, 0=no damage to plant, read-out: Morningglory, Ivy-leaved damage rating) was 0% and the pest or weed control at 250 g/ha ([4]; 250 g ai/ha, read-out: Morningglory, Ivy-leaved damage rating (100=total damage to plant; 0=no damage to plant)) was 0%. The pest or weed control at 15.625 g/ha ([5]; 15.625 g ai/ha, read-out: Pigweed, Redroot damage rating (100=total damage to plant; 0=no damage to plant)) was 0%, the pest or weed control at 62.5 g/ha ([5]; 62.5 g ai/ha, 100=total damage to plant, 0=no damage to plant, read-out: Pigweed, Redroot damage rating) was 0% and the pest or weed control at 250 g/ha ([5]; 250 g ai/ha, read-out: Pigweed, Redroot damage rating (100=total damage to plant; 0=no damage to plant)) was 0%. It also gave a pest or weed control at 15.625 g/ha ([6]; 15.625 g ai/ha, read-out: Velvetleaf damage rating (100=total damage to plant; 0=no damage to plant)) of 0%, a pest or weed control at 62.5 g/ha ([6]; 62.5 g ai/ha, 100=total damage to plant, 0=no damage to plant, read-out: Velvetleaf damage rating) of 0% and a pest or weed control at 250 g/ha ([6]; 250 g ai/ha, read-out: Velvetleaf damage rating (100=total damage to plant; 0=no damage to plant)) of 0%. It also gave a pest or weed control at 15.625 g/ha [7, 13] of 0%, a pest or weed control at 62.5 g/ha [7, 14] of 20% and a pest or weed control at 250 g/ha [7, 15] of 30%. For the same compound, the plant injury at 15.625 g/ha [8, 13] was 0%, the plant injury at 62.5 g/ha [8, 14] was 0% and the plant injury at 250 g/ha [8, 15] was 0%. It also gave a pest or weed control at 15.625 g/ha [9, 13] of 0%, a pest or weed control at 62.5 g/ha [9, 14] of 20% and a pest or weed control at 250 g/ha [9, 15] of 40%. It also gave a pest or weed control at 15.625 g/ha [10, 13] of 0%, a pest or weed control at 62.5 g/ha [10, 14] of 0% and a pest or weed control at 250 g/ha [10, 15] of 0%. The pest or weed control at 15.625 g/ha [11, 13] was 0%, the pest or weed control at 62.5 g/ha [11, 14] was 0% and the pest or weed control at 250 g/ha [11, 15] was 0%. For the same compound, the pest or weed control at 15.625 g/ha [12, 13] was 0%, the pest or weed control at 62.5 g/ha [12, 14] was 0% and the pest or weed control at 250 g/ha [12, 15] was 0%.
